Results reported in patent US4778797A, “Organo-silicon compounds, process for the manufacture of same, and anti-tumor agent comprising the compound” (Sanwa Kagaku Kenkyusho Co., Ltd., priority 1984, dated 1988).
Converted amounts (≈) assume the structure as drawn. Read-outs that look alike come from different tables or passages of the source.

What was measured:
[1] = test system: KB cells; test: Suppression of KB cell proliferation in vitro; assay type: cell-based; details: Homo sapiens, 72 h, 3 days exposure, Trypan Blue dye-exclusion, read-out: KB IC50 (50% inhibition density to tumor cell proliferation)
Protocol: In a cultivation device (5% CO2, 37° C.), KB cells (1×10^4 cells) were cultivated for 24 hours in a culture tube with 1 ml of Eagle culture medium added 10% ox serum, the used culture medium was thrown away to change with a fresh culture medium (0.9 ml), and then 0.1 ml of a similar culture fluid containing each testing compound prepared by the process as described in the Examples was added to cultivate the same for further 3 days. Thereafter, living cells were dyed with Tripan Blue and measured same through a dye-exclusion method.
A control was treated in a manner similar to the above, except that a culture fluid containing no compound of the invention was added.
50% inhibition density (IC50) to the tumor cell proliferation was decided through the tests between the testing group and the control group to obtain results as shown in following Table 1.

[2] = test system: Colon-38 carcinoma; test: Anti-tumor action to Colon-38 carcinoma; assay type: in vivo, BDF1 mice; details: oral, tumor weight at 28th day
Protocol: 0.02 ml of 10(W/V)% cell suspension prepared from a solid cancer cell (Colon-38 carcinoma) were transplanted under skin of BDF1 mice (20-21 g, age of about 5 weeks), and each of testing compounds was orally dosed to the mice at 1st, 5th and 9th day after the transplantation. A major and minor axes of the cancerous tumor were measured at 11th, 14th, 21st, 25th and 28th day after the transplantation to calcurate volume of the tumor in accordance with the following.
At 28th day from the transplantation, the mice were killed and each of the cancerous tumors was extracted to measure its weight and to determine an inhibitation ratio in comparison with a non-treated control group.

[3] = test system: L-1210 leukemia; test: Anti-tumor action to L-1210 leukemia; assay type: in vivo, BDF1 female mice; details: Mus musculus, L1210, oral; for ILS at 250 mg/kg/day: 250 mg/kg/day × 3 (1st, 5th, 9th day); for ILS at 500 mg/kg/day: 500 mg/kg/day × 3 (1st, 5th, 9th day)
Protocol: L-1210 leukemia cell (1×10^5 cells) was transplanted in a abdominal cavity of BDF1 female mice (20-21 g, age of about 5 weeks), and each of testing compounds was orally dosed in 250 mg/kg or 500 mg/kg at 1st, 5th and 9th day after the transplantation to check days of life of the mice. [formula]

[4] = test system: Lewis lung carcinoma; test: Anti-tumor action to Lewis lung carcinoma (primary tumor weight and metastasis); assay type: in vivo, BDF1 mice; details: Mus musculus, po, 504 h
Text: Lewis lung carcinoma (1×10^5 cells) was transplanted under skin of right ear of BDF1 mice (age of about 5 weeks), and each of testing compounds was orally dosed 10 times from 1st to 10th day after the transplantation. At 21st day after the transplantation, the mice were killed to measure a weight of the primarly tumor and to extract a lung. The lung was fixed in a conventional manner to count a number of metastasis on cancerous cells with use of a stereomicroscope having a low magnification. An anti-tumor action of each compound was expressed with an inhibition in weight of the primarly tumor and an inhibition of the metastasis.

[5] = test system: B-16 melanoma; test: Anti-tumor action to B-16 melanoma; assay type: in vivo, BDF1 female mice; details: oral, tumor weight at 21st day; for inhibition in vivo at 100 mg/kg/day: 100 mg/kg/day × 3; for inhibition in vivo at 200 mg/kg/day: 200 mg/kg/day × 3; for inhibition in vivo at 400 mg/kg/day: 400 mg/kg/day × 3
Text: B-16 melanoma (1×10^5 cells) was transplanted under skin of BDF1 female mice (age of about 5 weeks), and each of testing compounds was orally dosed at 1st, 5th and 9th day after the transplantation. At 21st day after the transplantation, the mice were killed to measure a weight of the cancerous tumor and to finally determine an inhibition ratio.

[6] = Mus musculus, B16, 504 h, 125 mg/kg/day × 3, read-out: B-16 melanoma Inhibition ratio
[7] = Mus musculus, B16, 504 h, read-out: B-16 melanoma Inhibition ratio

Row | SMILES | IC50 [1] [µg/mL] | ILS at 250 mg/kg/day ([3]; read-out: L-1210 ILS) [%] | ILS at 250 mg/kg/day ([3]; read-out: L-1210 Judgement) [%] | ILS at 500 mg/kg/day ([3]; read-out: L-1210 ILS) [%] | ILS at 500 mg/kg/day ([3]; read-out: L-1210 Judgement) [%] | B-16 melanoma Inhibition ratio ([5]; 125 mg/kg/day × 3) [%] | B-16 melanoma Inhibition ratio ([5]; 250 mg/kg/day × 3) [%] | other results
1 | CCCCCCCC[Si](C)(C)CCSCCNC(=O)n1cc(F)c(=O)[nH]c1=O [Example 4, N-[2-[[2-(Dimethyloctylsilyl)ethyl]thio]ethyl]-5-fluoro-3,4-dihydro-2,4-dioxo-1(2H)-pyrimidinecarboxamide] | 20 (≈ 46.3 µM) | 12 | < 25 | 38 | 25 to 50 | – | – | colon-38 Inhibition ratio ([2]; 345 mg/kg/day × 3): 80.0%; inhibition in vivo at 32 mg/kg/day ([4]; 32 mg/kg/day × 10, 21st day, read-out: Inhibition Ratio weight LLC): 4.6%; inhibition in vivo at 32 mg/kg/day ([4]; 32 mg/kg/day × 10, lung, 21st day, read-out: Inhibition Ratio metastasis): 76.2%; inhibition in vivo at 64 mg/kg/day ([4]; 64 mg/kg/day × 10, 21st day, read-out: Inhibition Ratio weight LLC): 18%; inhibition in vivo at 64 mg/kg/day ([4]; 64 mg/kg/day × 10, lung, 21st day, read-out: Inhibition Ratio metastasis): 97.5%
2 | C[Si](CCSCCNC(=O)n1cc(F)c(=O)[nH]c1=O)(c1ccccc1)c1ccccc1 [Example 7, 5-Fluoro-3,4-dihydro-N-[2-[[2-(methyldiphenylsilyl)ethyl]thio]ethyl]-2,4-dioxo-1(2H)-pyrimidinecarboxamide] | 4 (≈ 8.74 µM) | 11 | < 25 | 11 | < 25 | – | – | inhibition in vivo at 366 mg/kg/day ([2]; Mus musculus, 672 h, 366 mg/kg/day × 3, read-out: colon-38 Inhibition ratio): 32.2%; inhibition in vivo at 34 mg/kg/day ([4]; 34 mg/kg/day × 10, 21st day, read-out: Inhibition Ratio weight LLC): 31%; inhibition in vivo at 34 mg/kg/day ([4]; 34 mg/kg/day × 10, lung, 21st day, read-out: Inhibition Ratio metastasis): 67.1%; inhibition in vivo at 68 mg/kg/day ([4]; 68 mg/kg/day × 10, 21st day, read-out: Inhibition Ratio weight LLC): 25%; inhibition in vivo at 68 mg/kg/day ([4]; 68 mg/kg/day × 10, lung, 21st day, read-out: Inhibition Ratio metastasis): 87.7%
3 | CC(C)[Si](C)(C)CCSCCCNC(=O)n1cc(F)c(=O)[nH]c1=O [Example 9, 5-Fluoro-3,4-dihydro-N-[3-[[2-(isopropyldimethylsilyl)ethyl]thio]propyl]-2,4-dioxo-1(2H)-pyrimidinecarboxamide] | 15 (≈ 39.9 µM) | 45 | 25 to 50 | 80 | 50 to 100 | 17.6 | 19.4 | colon-38 Inhibition ratio ([2]; 338 mg/kg/day × 3): 98.4%
4 | CC(C)[Si](C)(C)CCCSCCCNC(=O)n1cc(F)c(=O)[nH]c1=O [Example 11, 5-Fluoro-3,4-dihydro-N-[3-[[3-(isopropyldimethylsilyl)propyl]thio]propyl]-2,4-dioxo-1(2H)-pyrimidinecarboxamide] | 13 (≈ 33.4 µM) | 18 | < 25 | 81 | 50 to 100 | 32.8 | 45.7 | colon-38 Inhibition ratio ([2]; 350 mg/kg/day × 3): 90.3%
5 | CC(C)[Si](C)(C)CCCSCCNC(=O)n1cc(F)c(=O)[nH]c1=O [Example 12, 5-Fluoro-3,4-dihydro-N-[2-[[3-(isopropyldimethylsilyl)propyl]thio]ethyl]-2,4-dioxo-1(2H)-pyrimidinecarboxamide] | 15 (≈ 39.9 µM) | 24 | < 25 | 70 | 50 to 100 | – | – | inhibition in vivo at 125 mg/kg/day [5, 6]: 34.2%; inhibition in vivo at 250 mg/kg/day ([5]; Mus musculus, B16, 504 h, 250 mg/kg/day × 3, read-out: B-16 melanoma Inhibition ratio): 37.9%; inhibition in vivo at 338 mg/kg/day ([2]; Mus musculus, 672 h, 338 mg/kg/day × 3, read-out: colon-38 Inhibition ratio): 97.3%
6 | CC(C)(C)[Si](C)(C)CCCSCCNC(=O)n1cc(F)c(=O)[nH]c1=O [Example 13, N-[2-[[3-(t-Butyldimethylsilyl)propyl]thio]ethyl]-5-fluoro-3,4-dihydro-2,4-dioxo-1(2H)-pyrimidinecarboxamide] | 13 (≈ 33.4 µM) | 10 | < 25 | 67 | 50 to 100 | – | 43.1 | inhibition in vivo at 125 mg/kg/day [5, 6]: 38%; colon-38 Inhibition ratio ([2]; 311 mg/kg/day × 3): 81.0%
7 | CC(C)(C)[Si](C)(C)CCCSCCCNC(=O)n1cc(F)c(=O)[nH]c1=O [Example 14, N-[3-[[3-(t-Butyldimethylsilyl)propyl]thio]propyl]-5-fluoro-3,4-dihydro-2,4-dioxo-1(2H)-pyrimidinecarboxamide] | – | 19 | < 25 | 68 | 50 to 100 | 55.2 | 46.3 | colon-38 Inhibition ratio ([2]; 323 mg/kg/day × 3): 90.1%
8 | CCCC[Si](C)(C)CCCSCCCNC(=O)n1cc(F)c(=O)[nH]c1=O [Example 15, N-[3-[[3-(Butyldimethylsilyl)propyl]thio]propyl]-5-fluoro-3,4-dihydro-2,4-dioxo-1(2H)-pyrimidinecarboxamide] | – | 26 | 25 to 50 | 62 | 50 to 100 | 69.5 | 88.5 | colon-38 Inhibition ratio ([2]; 323 mg/kg/day × 3): 92.3%
9 | C[Si](C)(CCCSCCCNC(=O)n1cc(F)c(=O)[nH]c1=O)c1ccccc1 [Example 16, N-[3-[[3-(Dimethylphenylsilyl)propyl]thio]propyl]-5-fluoro-3,4-dihydro-2,4-dioxo-1(2H)-pyrimidinecarboxamide] | – | 23 | < 25 | 86 | 50 to 100 | 82.2 | 70.5 | colon-38 Inhibition ratio ([2]; 339 mg/kg/day × 3): 97.9%
10 | CCCC[Si](C)(C)CCSCCCNC(=O)n1cc(F)c(=O)[nH]c1=O [Example 17, N-[3-[[2-(Butyldimethylsilyl)ethyl]thio]propyl]-5-fluoro-3,4-dihydro-2,4-dioxo-1(2H)-pyrimidinecarboxamide] | – | – | – | – | – | – | – | inhibition in vivo at 100 mg/kg/day [5, 7]: 54.3%; inhibition in vivo at 200 mg/kg/day [5, 7]: 16.3%; inhibition in vivo at 400 mg/kg/day [5, 7]: 34.8%; inhibition in vivo at 312 mg/kg/day ([2]; Mus musculus, 672 h, 312 mg/kg/day × 3, read-out: colon-38 Inhibition ratio): 97.4%
11 | C[Si](C)(CCSCCCNC(=O)n1cc(F)c(=O)[nH]c1=O)c1ccccc1 [Example 18, N-[3-[[2-(Dimethylphenylsilyl)ethyl]thio]propyl]-5-fluoro-3,4-dihydro-2,4-dioxo-1(2H)-pyrimidinecarboxamide] | – | – | – | – | – | – | – | inhibition in vivo at 100 mg/kg/day [5, 7]: 55.2%; inhibition in vivo at 200 mg/kg/day [5, 7]: 46.7%; inhibition in vivo at 400 mg/kg/day [5, 7]: 29.6%; inhibition in vivo at 328 mg/kg/day ([2]; Mus musculus, 672 h, 328 mg/kg/day × 3, read-out: colon-38 Inhibition ratio): 71.3%
